According to US20110275559A1, “Long-Acting Y2 and/or Y4 Receptor Agonists” (Novo Nordisk A/S, priority 2008, published 2011):
Read-outs that look alike come from different tables or passages of the source. *1 amine or outer side, *2 acyl side, *3 side chain or, on linkers, in order; H or OH if unused. Where a SMILES comes first, the peptide text is derived from it. Where no end group is shown, it is not given here. Side-chain parts run from the residue outwards. The star is where a group is joined. C20 diacid = O=C(O)CCCCCCCCCCCCCCCCCCC(=O)*; γGlu = O=C(O)[C@H](CCC(=O)[*:2])N[*:1]; Trx = NC[C@H]1CC[C@H](C(=O)O)CC1; AEEA = NCCOCCOCC(=O)O

How the values were obtained:
Y4 receptor = target: T1, Y4 receptor (Homo sapiens, UniProt P50391); assay: Y4 receptor ACTOne based FLIPR assay (cAMP biosensor); type: cell-based
T1 construct: host or cells: ACTOne HEK-293 cells
Description: (§1) ACTOne™ is an easily scaleable cAMP biosensor HTS platform for measurement of Gs and Gi coupled 7™ receptor signalling from BD Biosciences (San Jose, Calif.). The cells express a biosensor developed around a modified rat olfactory cyclic nucleotide gated (CNG) calcium channel—a fairly non-discriminatory ion channel that responds to cAMP and cGMP. The CNG has been engineered to be cAMP selective and thus function as a cAMP responsive biosensor that signals through calcium or membrane potential responsive dyes. Y2 or Y4 receptor expressing ACTOne HEK-293 cells are obtained from BD Biosciences. The cells are loaded with a calcium responsive dye that only distributes in the cytoplasm. Probenecid, an inhibitor of the organic anion transporter is added to prevent the dye from leaving the cell. A phosphodiesterase inhibitor is added to prevent formatted cAMP from being degraded. Isoproterenol (an β1/β2 agonist) is added to activate the adenylate cyclase. When an Y2 or Y4 receptor agonist is added, the adenylate cyclase is inactivated. The decreased calcium concentration in the cytoplasm is then detected as an increase in fluorescence. Together with the test substance, Isoproterenol at a concentration matching EC80, is added to all wells. • The cells are plated out in Greiner 384-well plates. […] The plates are covered with tinfoil to avoid light (the dye can be excited by the daylight, which results in higher baseline and variation). • The FLIPR (FLIPRtetra from Molecular Devices, CA, USA) adds 1 μl sample and 1 μl isoproterenol (0.05 μM final concentration) at the same time. • The fluorescence signal from the wells is measured 330 seconds after sample addition on the FLIPR.

[1] = Mini-pig PK assay (plasma half-life); conditions: Göttingen, minipig, iv
How it was run: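 Catheterised mini-pigs received compound i.v. at 10 nmol/kg in pH 4.0 phosphate/NaCl/tween vehicle, or alternatively i.v. or s.c. at 1–30 nmol/kg in pH 8.0 K2HPO4/tween. Stabilised plasma was sampled up to 13 days and assayed by LC-MS (LLOQ 2 nM). Half-life came from non-compartmental analysis of individual animal profiles.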

Y2 receptor = target: T2, Y2 receptor (Homo sapiens, UniProt P49146); assay: Y2 receptor ACTOne based FLIPR assay (cAMP biosensor); type: cell-based
T2 construct: host or cells: ACTOne HEK-293 cells
T2 sequence (P49146 1-381): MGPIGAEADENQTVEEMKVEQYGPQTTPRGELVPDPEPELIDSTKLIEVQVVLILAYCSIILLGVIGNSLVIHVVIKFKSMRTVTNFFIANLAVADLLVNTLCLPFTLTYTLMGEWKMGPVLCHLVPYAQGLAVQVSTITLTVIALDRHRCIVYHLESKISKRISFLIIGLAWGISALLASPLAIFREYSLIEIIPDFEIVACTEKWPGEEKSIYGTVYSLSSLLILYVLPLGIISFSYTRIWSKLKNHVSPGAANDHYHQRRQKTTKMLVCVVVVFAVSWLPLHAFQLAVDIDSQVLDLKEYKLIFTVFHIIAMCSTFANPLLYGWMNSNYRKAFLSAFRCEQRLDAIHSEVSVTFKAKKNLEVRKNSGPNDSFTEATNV
Description: as §1

T1 sequence (P50391 whole entry): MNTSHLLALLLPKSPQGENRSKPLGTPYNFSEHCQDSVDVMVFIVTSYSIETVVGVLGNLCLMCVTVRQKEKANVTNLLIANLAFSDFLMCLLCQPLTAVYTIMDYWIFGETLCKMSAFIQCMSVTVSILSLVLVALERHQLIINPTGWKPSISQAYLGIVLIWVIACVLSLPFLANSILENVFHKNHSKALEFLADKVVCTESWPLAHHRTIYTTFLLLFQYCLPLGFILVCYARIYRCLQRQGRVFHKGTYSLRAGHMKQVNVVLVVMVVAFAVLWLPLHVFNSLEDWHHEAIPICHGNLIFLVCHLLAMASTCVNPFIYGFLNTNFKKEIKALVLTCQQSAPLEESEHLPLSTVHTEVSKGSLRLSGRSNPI

CC[C@H](C)[C@H](NC(=O)[C@H](Cc1ccc(O)cc1)NC(=O)[C@H](CCCNC(=N)N)NC(=O)[C@H](CCCNC(=N)N)NC(=O)[C@H](CC(C)C)NC(=O)[C@H](CC(=O)O)NC(=O)[C@H](C)NC(=O)[C@H](C)NC(=O)[C@H](Cc1ccc(O)cc1)NC(=O)[C@H](CCC(N)=O)NC(=O)[C@H](C)NC(=O)[C@H](CC(C)C)NC(=O)[C@H](CCC(N)=O)NC(=O)[C@H](CCC(=O)O)NC(=O)[C@@H]1CCCN1C(=O)[C@H](CCCCNC(=O)COCCOCCNC(=O)COCCOCCNC(=O)CC[C@H](NC(=O)[C@H]1CC[C@H](CNC(=O)CCCCCCCCCCCCCCCCCCC(=O)O)CC1)C(=O)O)NC(=O)[C@H](C)NC(=O)[C@H](CC(N)=O)NC(=O)[C@H](CC(=O)O)NC(=O)CNC(=O)[C@@H]1CCCN1C(=O)[C@H](Cc1ccc(O)cc1)NC(=O)[C@@H](NC(=O)[C@@H]1CCCN1C(=O)[C@H](CCC(=O)O)NC(=O)[C@H](CC(C)C)NC(=O)[C@@H]1CCCN1C(=O)[C@H](C)N)C(C)C)C(=O)N[C@@H](CC(N)=O)C(=O)N[C@@H](CC(C)C)C(=O)N[C@@H](CC(C)C)C(=O)N[C@H](C(=O)N[C@@H](CCCNC(=N)N)C(=O)N[C@@H](CCC(N)=O)C(=O)N[C@@H](CCCNC(=N)N)C(=O)N[C@@H](Cc1ccc(O)cc1)C(N)=O)[C@@H](C)O [SEQ ID NO: 4] (H-APLEPVYPGDNAK([AEEA-AEEA-γGlu-Trx-C20 diacid])PEQLAQYAADLRRYINLLTRQRY-NH2; N-terminus and C-terminus assumed)
EC50 (Y4 receptor): 18 nM

CC[C@H](C)[C@H](NC(=O)[C@H](Cc1ccc(O)cc1)NC(=O)[C@H](CCCNC(=N)N)NC(=O)[C@H](CCCNC(=N)N)NC(=O)[C@H](CC(C)C)NC(=O)[C@H](CC(=O)O)NC(=O)[C@H](C)NC(=O)[C@H](C)NC(=O)[C@H](Cc1ccc(O)cc1)NC(=O)[C@H](CCC(N)=O)NC(=O)[C@H](C)NC(=O)[C@H](CC(C)C)NC(=O)[C@H](CCC(N)=O)NC(=O)[C@H](CCC(=O)O)NC(=O)[C@@H]1CCCN1C(=O)[C@H](CCCCNC(=O)COCCOCCNC(=O)COCCOCCNC(=O)CC[C@H](NC(=O)[C@H]1CC[C@H](CNC(=O)CCCCCCCCCCCCCCCCCCC(=O)O)CC1)C(=O)O)NC(=O)[C@H](C)NC(=O)[C@H](CC(=O)O)NC(=O)[C@H](CC(N)=O)NC(=O)CNC(=O)[C@@H]1CCCN1C(=O)[C@H](Cc1ccc(O)cc1)NC(=O)[C@@H](NC(=O)[C@@H]1CCCN1C(=O)[C@H](CCC(=O)O)NC(=O)[C@H](CC(C)C)NC(=O)[C@@H]1CCCN1C(=O)[C@H](C)N)C(C)C)C(=O)N[C@@H](CC(N)=O)C(=O)N[C@@H](CC(C)C)C(=O)N[C@H](C(=O)N[C@H](C(=O)N[C@@H](CCCNC(=N)N)C(=O)N1CCC[C@H]1C(=O)N[C@@H](CCCNC(=N)N)C(=O)N[C@@H](Cc1ccc(O)cc1)C(N)=O)[C@@H](C)O)C(C)C [SEQ ID NO: 14, N-epsilon13-[2-(2-{2-[2-(2-{2-[(S)-4-Carboxy-4-({trans-4-[(19-carboxynonadecanoylamino)methyl]cyclohexanecarbonyl}amino)butyrylamino]-eth-oxy}ethoxy)acetylamino]ethoxy}ethoxy)acetyl][Asn10,Asp11,Lys13,Leu17,Leu30,Val31]hPP(1-36)] (H-APLEPVYPGNDAK([AEEA-AEEA-γGlu-Trx-C20 diacid])PEQLAQYAADLRRYINLVTRPRY-NH2; N-terminus and C-terminus assumed)
EC50 (Y4 receptor): 18 nM

CC(C)C[C@H](NC(=O)[C@H](CCC(N)=O)NC(=O)[C@H](CCC(=O)O)NC(=O)[C@@H]1CCCN1C(=O)[C@H](CCCCNC(=O)COCCOCCNC(=O)COCCOCCNC(=O)CC[C@H](NC(=O)[C@H]1CC[C@H](CNC(=O)CCCCCCCCCCCCCCCCCCC(=O)O)CC1)C(=O)O)NC(=O)[C@H](C)NC(=O)[C@H](CC(N)=O)NC(=O)[C@H](CC(=O)O)NC(=O)CNC(=O)[C@@H]1CCCN1C(=O)[C@H](Cc1ccc(O)cc1)NC(=O)[C@@H](NC(=O)[C@@H]1CCCN1C(=O)[C@H](CCC(=O)O)NC(=O)[C@H](CC(C)C)NC(=O)[C@@H]1CCCN1C(=O)[C@H](C)N)C(C)C)C(=O)N[C@@H](C)C(=O)N[C@@H](CCC(N)=O)C(=O)N[C@@H](Cc1ccc(O)cc1)C(=O)N[C@@H](C)C(=O)N[C@@H](C)C(=O)N[C@@H](CC(=O)O)C(=O)N[C@@H](CC(C)C)C(=O)N[C@@H](CCCNC(=N)N)C(=O)N[C@@H](CCCNC(=N)N)C(=O)N[C@@H](Cc1ccc(O)cc1)C(=O)N[C@@H](CC(C)C)C(=O)N[C@@H](CC(N)=O)C(=O)N[C@H](C(=O)N[C@@H](CC(C)C)C(=O)N[C@H](C(=O)N[C@@H](CCCNC(=N)N)C(=O)N[C@@H](CCC(N)=O)C(=O)N[C@@H](CCCNC(=N)N)C(=O)N[C@@H](Cc1ccc(O)cc1)C(N)=O)[C@@H](C)O)C(C)C [SEQ ID NO: 15, N-epsilon13-[2-(2-{2-[2-(2-{2-[(S)-4-Carboxy-4-({trans-4-[(19-carboxynonadecanoylamino)methyl]cyclohexanecarbonyl}amino)butyrylamino]-eth-oxy}ethoxy)acetylamino]ethoxy}ethoxy)acetyl][Lys13,Leu17,Leu28,Val30,Gln34]hPP(1-36)] (H-APLEPVYPGDNAK([AEEA-AEEA-γGlu-Trx-C20 diacid])PEQLAQYAADLRRYLNVLTRQRY-NH2; N-terminus and C-terminus assumed)
EC50 (Y4 receptor): 7 nM

CC[C@H](C)[C@H](NC(=O)[C@H](Cc1ccc(O)cc1)NC(=O)[C@H](CCCNC(=N)N)NC(=O)[C@H](CCCNC(=N)N)NC(=O)[C@H](CC(C)C)NC(=O)[C@H](CC(=O)O)NC(=O)[C@H](C)NC(=O)[C@H](C)NC(=O)[C@H](Cc1ccc(O)cc1)NC(=O)[C@H](CCC(N)=O)NC(=O)[C@H](C)NC(=O)[C@H](CC(C)C)NC(=O)[C@H](CCC(N)=O)NC(=O)[C@H](CCC(=O)O)NC(=O)[C@@H]1CCCN1C(=O)[C@@H](NC(=O)[C@H](C)NC(=O)[C@H](CC(N)=O)NC(=O)[C@H](CC(=O)O)NC(=O)CNC(=O)[C@@H]1CCCN1C(=O)[C@H](Cc1ccc(O)cc1)NC(=O)[C@@H](NC(=O)[C@@H]1CCCN1C(=O)[C@H](CCC(=O)O)NC(=O)[C@H](CC(C)C)NC(=O)[C@@H]1CCCN1C(=O)[C@H](C)NC(=O)COCCOCCNC(=O)COCCOCCNC(=O)CC[C@H](NC(=O)[C@H]1CC[C@H](CNC(=O)CCCCCCCCCCCCCCCCCCC(=O)O)CC1)C(=O)O)C(C)C)[C@@H](C)O)C(=O)N[C@@H](CC(N)=O)C(=O)N[C@@H](CC(C)C)C(=O)N[C@@H](CC(C)C)C(=O)N[C@H](C(=O)N[C@@H](CCCNC(=N)N)C(=O)N1CCC[C@H]1C(=O)N[C@@H](CCCNC(=N)N)C(=O)N[C@@H](Cc1ccc(O)cc1)C(N)=O)[C@@H](C)O [SEQ ID NO: 75, N-alfa-[2-(2-{2-[2-(2-{2-[(S)-4-Carboxy-4-({trans-4-[(19-carboxynonadecanoylamino)methyl]cyclohexanecarbonyl}amino)butyrylamino]-ethoxy}ethoxy)acetylamino]ethoxy}ethoxy)acetyl][Leu17,Leu30]hPP1-36] ({C20 diacid-Trx-γGlu-AEEA-AEEA}-APLEPVYPGDNATPEQLAQYAADLRRYINLLTRPRY-NH2; C-terminus assumed)
half-life ([1]; in vivo, 10 nmol/kg): 48 h
EC50 (Y2 receptor): > 1000 nM

PLEPVYPGDNATPEQLAQYAADLRRYINLLTRPRY-NH2 (C-terminus assumed) [SEQ ID NO: 73, [Leu17,Leu30]hPP2-36, reference compound]
half-life ([1]; 50 nmol/kg): 0.55 h
EC50 (Y2 receptor; Table 2, PP analogues, ACTOne HEK-293 cells, read-out: Y2 cAMP EC50): > 1000 nM
